The values below come from patent US11702422B2, “Imidazopyridazines as modulators of IL-17” (Janssen Pharmaceutica NV, priority 2020, dated 2023).

pIC50: −log10 of the molar value.

For assay [1], the target named is IL-17A(FLAG-Tagged): IL-17RA(His-Tagged) (Homo sapiens, UniProt Q16552, K93Q). Description: IL-17A(FLAG-Tagged): IL-17RA(His-Tagged) Binding Disruption Eu-HTRF Assay. Conditions: IL-17A/IL-17RA binding disruption, simple average if tested more than once. Summed up:
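IC50 comes from a one-site competition fit of the HTRF 665/620 nm ratio. Compound dilutions (2-fold, 22 points) were held 1 h rt with FLAG-tagged IL-17A dimer, then His-tagged IL-17RA plus Eu-cryptate anti-FLAG and D2 anti-His antibodies were added for 2 h rt.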
Background: In TR-FRET formats the signal depends on donor and acceptor labels being close together.

Assay [2] deals with IL-17A-induced G-CSF production in human normal keratinocyte (NHK). Description: NHK Assay: IL-17A-induced G-CSF production in human normal keratinocytes. It is filed as cell-based. Conditions: 24 h, adult normal human keratinocytes, IL-17A 5 ng/mL, simple average if tested more than once. Summed up:
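Adult normal human keratinocytes were seeded at 3000-4000 cells/well. Recombinant human IL-17A was pre-incubated 1 h at rt with titrated compound, then added to cells (final 5 ng/mL IL-17A, 0.2% DMSO, 5% FBS) for 24 h at 37° C. Supernatant G-CSF was measured by HTRF against a standard curve to give IC50.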

UniProt Q16552, sequence (Q16552 with tags, fused parts or gaps K93Q): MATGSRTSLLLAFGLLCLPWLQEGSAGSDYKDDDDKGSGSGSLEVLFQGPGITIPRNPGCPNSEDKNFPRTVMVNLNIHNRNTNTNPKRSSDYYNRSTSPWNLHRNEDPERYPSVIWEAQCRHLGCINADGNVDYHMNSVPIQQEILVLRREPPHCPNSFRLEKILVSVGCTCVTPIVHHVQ

One may read the pIC50 as −log10 of the IC50, conventionally taken in molar units. Higher therefore signals a low IC50. In the case of `O=C(CCC(F)(F)F)N[C@@H](c1cnn2cc([C@@H](NC(=O)c3ccnc(OC4CC4)c3)C3CCC(F)(F)CC3)nc2c1)C1CC1` [Example 172, 2-Cyclopropoxy-N—((S)-(7-((R)-cyclopropyl(4,4,4-trifluorobutanamido)methyl)imidazo[1,2-b]pyridazin-2-yl)(4,4-difluorocyclohexyl)methyl)isonicotinamide], the pIC50 in assay [1] was 7.36; in assay [2] (Homo sapiens, Keratinocyte), 6.49.

On to `CC(C)c1cccc(C(=O)N[C@H](c2cn3ncc([C@H](NC(=O)CCC(F)(F)F)C4CC4)cc3n2)C2CCC(F)(F)CC2)n1` [Example 205, N—((S)-(7-((R)-Cyclopropyl(4,4,4-trifluorobutanamido)methyl)imidazo[1,2-b]pyridazin-2-yl)(4,4-difluorocyclohexyl)methyl)-6-isopropylpicolinamide], for which the negative-log IC50 (pIC50) in assay [1] was 6.41; in assay [2] (Homo sapiens, Keratinocyte), 5.43.

As to `Cc1nonc1C(=O)N[C@H](c1cn2ncc([C@H](NC(=O)CC3CC3(F)F)C3CC3)cc2n1)C1CCC(F)(F)CC1` (relative stereo) [Example 256], the pIC50 in assay [1] is 7.25; in assay [2] (Homo sapiens, Keratinocyte), 6.60.

`CCc1ccnc(C(=O)N[C@H](c2cn3ncc([C@H](NC(=O)CCC(F)(F)F)C4CC4)cc3n2)C2CCC(F)(F)CC2)c1` [Example 453, N—((S)-(7-((R)-Cyclopropyl(4,4,4-trifluorobutanamido)methyl)imidazo[1,2-b]pyridazin-2-yl)(4,4-difluorocyclohexyl)methyl)-4-ethylpicolinamide]: the pIC50 in assay [1] was 6.82; in assay [2] (Homo sapiens, Keratinocyte), 5.41.

Take `O=C(CCC(F)(F)F)N[C@@H](c1cnn2cc([C@@H](NC(=O)c3ccnc(OC4CCC4)c3)C3CCC(F)(F)CC3)nc2c1)C1CC1` [Example 181, 2-Cyclobutoxy-N—((S)-(7-((R)-cyclopropyl(4,4,4-trifluorobutanamido)methyl)imidazo[1,2-b]pyridazin-2-yl)(4,4-difluorocyclohexyl)methyl)isonicotinamide]: the negative logarithm of the IC50 (pIC50) was 7.10 in assay [1] and 6.34 in assay [2] (Homo sapiens, Keratinocyte).

In the case of `CC(C)n1nccc1C(=O)N[C@H](c1cn2ncc([C@H](NC(=O)CC(C)(F)F)C3CC3)cc2n1)C1CCC(F)(F)CC1` [Example 261, N—((S)-(7-((R)-Cyclopropyl(3,3-difluorobutanamido)methyl)imidazo[1,2-b]pyridazin-2-yl)(4,4-difluorocyclohexyl)methyl)-1-isopropyl-1H-pyrazole-5-carboxamide], the pIC50 in assay [1] was 6.89; in assay [2] (Homo sapiens, Keratinocyte), 6.37.

Regarding `Cc1nonc1C(=O)N[C@H](c1cn2ncc([C@H](NC(=O)CC(C)(C)C(F)F)C3CC3)cc2n1)C1CCC(F)(F)CC1` [Example 312, N—((S)-(7-((R)-Cyclopropyl(4,4-difluoro-3,3-dimethylbutanamido)methyl)imidazo[1,2-b]pyridazin-2-yl)(4,4-difluorocyclohexyl)methyl)-4-methyl-1,2,5-oxadiazole-3-carboxamide], the negative-log IC50 (pIC50) was 6.43 in assay [1] and 5.49 in assay [2] (Homo sapiens, Keratinocyte).

For `O=C(CCC(F)(F)F)N[C@@H](c1cnn2cc([C@@H](NC(=O)c3cc(C(F)(F)F)ncn3)C3CCC(F)(F)CC3)nc2c1)C1CC1` [Example 202, N—((S)-(7-((R)-Cyclopropyl(4,4,4-trifluorobutanamido)methyl)imidazo[1,2-b]pyridazin-2-yl)(4,4-difluorocyclohexyl)methyl)-6-(trifluoromethyl)pyrimidine-4-carboxamide], the pIC50 in assay [1] was 6.36; in assay [2] (Homo sapiens, Keratinocyte), 5.64.

On to `[2H]C([2H])([2H])C([2H])([2H])n1nccc1C(=O)N[C@H](c1cn2ncc(C(COCC)NC(=O)CC3CC(F)(F)C3)cc2n1)C1CCC(F)(F)CC1` (single isomer, unassigned) [Example 530, N—((S)-(7-((R*)-1-(2-(3,3-Difluorocyclobutyl)acetamido)-2-ethoxyethyl)imidazo[1,2-b]pyridazin-2-yl)(4,4-difluorocyclohexyl)methyl)-1-(ethyl-d5)-1H-pyrazole-5-carboxamide], for which the pIC50 in assay [1] is 6.01; in assay [2], 5.34.

`CC(C)n1nccc1C(=O)N[C@H](c1cn2ncc([C@H](NC(=O)CO[C@@H](C)C(F)(F)F)C3CC3)cc2n1)C1CCC(F)(F)CC1` (single isomer, unassigned) [Example 310]: the pIC50 in assay [1] was 6.77; in assay [2] (Homo sapiens, Keratinocyte), 6.66.

In the case of `O=C(CCC(F)(F)F)NCc1cnn2cc([C@@H](NC(=O)c3ccccc3)C3CCC(F)(F)CC3)nc2c1` [Example 5, (S)—N-((4,4-Difluorocyclohexyl)(7-((4,4,4-trifluorobutanamido)methyl)imidazo[1,2-b]pyridazin-2-yl)methyl)benzamide], the pIC50 in assay [1] is 5.96; in assay [2] (Homo sapiens, Keratinocyte), 5.72.

Regarding `Cc1nonc1C(=O)N[C@H](c1cn2ncc([C@H](NC(=O)CCCC(F)F)C3CC3)cc2n1)C1CCC(F)(F)CC1` [Example 326, N—((S)-(7-((R)-Cyclopropyl(5,5-difluoropentanamido)methyl)imidazo[1,2-b]pyridazin-2-yl)(4,4-difluorocyclohexyl)methyl)-4-methyl-1,2,5-oxadiazole-3-carboxamide], the pIC50 is 6.92 in assay [1] and 5.96 in assay [2] (Homo sapiens, Keratinocyte).

Take `CC(CC(=O)N[C@@H](c1cnn2cc([C@@H](NC(=O)c3conc3C3CC3)C3CCC(F)(F)CC3)nc2c1)C1CC1)C(F)(F)F` (single isomer, unassigned) [Example 128, 3-Cyclopropyl-N—((S)-(7-((R)-cyclopropyl((R*)-4,4,4-trifluoro-3-methylbutanamido)methyl)imidazo[1,2-b]pyridazin-2-yl)(4,4-difluorocyclohexyl)methyl)isoxazole-4-carboxamide]: the pIC50 in assay [1] is 7.49; in assay [2], 7.02.

For the compound `O=C(CCC(F)(F)F)N[C@@H](c1cnn2cc([C@@H](NC(=O)c3cncc(CCC(F)F)c3)C3CCC(F)(F)CC3)nc2c1)C1CC1` [Example 151, N—((S)-(7-((R)-Cyclopropyl(4,4,4-trifluorobutanamido)methyl)imidazo[1,2-b]pyridazin-2-yl)(4,4-difluorocyclohexyl)methyl)-5-(3,3-difluoropropyl)nicotinamide], the pIC50 was 7.17 in assay [1] and 6.70 in assay [2] (Homo sapiens, Keratinocyte).

Regarding `O=C(CC1CC(F)(F)C1)N[C@@H](c1cnn2cc([C@@H](NC(=O)c3nonc3C3CC3)C3CCC(F)(F)CC3)nc2c1)C1CC1` [Example 289, 4-Cyclopropyl-N—((S)-(7-((R)-cyclopropyl(2-(3,3-difluorocyclobutyl)acetamido)methyl)imidazo[1,2-b]pyridazin-2-yl)(4,4-difluorocyclohexyl)methyl)-1,2,5-oxadiazole-3-carboxamide], the pIC50 in assay [1] is 7.43; in assay [2] (Homo sapiens, Keratinocyte), 7.64.

`O=C(CC1CC(F)(F)C1)N[C@@H](c1cnn2cc([C@@H](NC(=O)c3nonc3C3(O)CCCC3)C3CCC(F)(F)CC3)nc2c1)C1CC1` [Example 393, N—((S)-(7-((R)-Cyclopropyl(2-(3,3-difluorocyclobutyl)acetamido)methyl)imidazo[1,2-b]pyridazin-2-yl)(4,4-difluorocyclohexyl)methyl)-4-(1-hydroxycyclopentyl)-1,2,5-oxadiazole-3-carboxamide]: the negative-log IC50 (pIC50) is 7.03 in assay [1] and 6.92 in assay [2] (Homo sapiens, Keratinocyte).
